Assay results: ChEMBL document CHEMBL1201862, “PubChem BioAssay data set” (2004)
The source made the active and inactive calls.

Columns and labels:
[1] = biological target: T1, Sentrin-specific protease 6 (Homo sapiens, UniProt Q9GZR1); assay type: functional;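 note: Luminescence-based dose-response confirmatory assay of SENP6 inhibition, following up an ultra-high-throughput screen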
T1 sequence (Q9GZR1 whole entry): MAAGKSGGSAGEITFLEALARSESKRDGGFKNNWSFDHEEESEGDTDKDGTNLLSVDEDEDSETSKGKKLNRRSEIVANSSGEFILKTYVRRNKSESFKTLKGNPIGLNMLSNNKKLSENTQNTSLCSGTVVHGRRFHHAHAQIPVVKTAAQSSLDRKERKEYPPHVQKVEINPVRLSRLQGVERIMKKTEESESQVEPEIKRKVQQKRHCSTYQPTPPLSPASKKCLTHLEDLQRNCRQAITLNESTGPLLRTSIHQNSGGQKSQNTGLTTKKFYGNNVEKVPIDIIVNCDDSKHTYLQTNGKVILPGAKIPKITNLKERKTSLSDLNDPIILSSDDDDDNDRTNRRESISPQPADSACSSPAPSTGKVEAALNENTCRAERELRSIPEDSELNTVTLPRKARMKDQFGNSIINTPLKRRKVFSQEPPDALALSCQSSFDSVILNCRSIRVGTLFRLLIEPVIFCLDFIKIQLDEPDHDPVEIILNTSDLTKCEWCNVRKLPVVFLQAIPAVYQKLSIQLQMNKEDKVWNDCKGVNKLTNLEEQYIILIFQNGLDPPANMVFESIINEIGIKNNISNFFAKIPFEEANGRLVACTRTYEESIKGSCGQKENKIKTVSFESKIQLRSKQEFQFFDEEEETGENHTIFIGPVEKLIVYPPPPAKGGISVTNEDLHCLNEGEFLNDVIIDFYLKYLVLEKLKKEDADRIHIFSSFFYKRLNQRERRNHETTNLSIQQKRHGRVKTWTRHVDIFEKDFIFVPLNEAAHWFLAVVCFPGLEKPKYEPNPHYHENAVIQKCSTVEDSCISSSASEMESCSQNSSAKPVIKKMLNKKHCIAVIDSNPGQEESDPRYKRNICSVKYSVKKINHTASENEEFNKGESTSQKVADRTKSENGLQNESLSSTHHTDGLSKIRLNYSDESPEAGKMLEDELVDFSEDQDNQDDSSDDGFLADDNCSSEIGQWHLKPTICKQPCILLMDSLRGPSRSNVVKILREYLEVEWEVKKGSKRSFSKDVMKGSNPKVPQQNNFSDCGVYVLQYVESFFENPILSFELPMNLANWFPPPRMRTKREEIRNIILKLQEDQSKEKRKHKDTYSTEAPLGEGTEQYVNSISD

[2] = biological target: T2, Caspase-3 (Homo sapiens, UniProt P42574); assay type: functional;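 note: Dose-response selectivity test against caspase-3 for candidate inhibitors of sentrin-specific proteases (SENPs)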
T2 sequence (P42574 whole entry): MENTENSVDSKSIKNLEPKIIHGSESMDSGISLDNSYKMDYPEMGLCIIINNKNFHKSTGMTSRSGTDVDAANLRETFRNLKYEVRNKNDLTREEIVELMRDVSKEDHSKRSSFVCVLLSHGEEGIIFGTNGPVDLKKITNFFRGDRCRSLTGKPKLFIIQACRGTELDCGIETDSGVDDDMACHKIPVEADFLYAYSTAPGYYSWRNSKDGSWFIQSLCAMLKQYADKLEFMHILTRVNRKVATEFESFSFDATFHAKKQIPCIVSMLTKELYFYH

[3] = biological target: T3, Tyrosyl-DNA phosphodiesterase 2 (Homo sapiens, UniProt O95551); experiment: human TDP2 enzyme inhibitors, dose response, biochemical, epi absorbance, IC50 (AID 743297)
T3 sequence (O95551 whole entry): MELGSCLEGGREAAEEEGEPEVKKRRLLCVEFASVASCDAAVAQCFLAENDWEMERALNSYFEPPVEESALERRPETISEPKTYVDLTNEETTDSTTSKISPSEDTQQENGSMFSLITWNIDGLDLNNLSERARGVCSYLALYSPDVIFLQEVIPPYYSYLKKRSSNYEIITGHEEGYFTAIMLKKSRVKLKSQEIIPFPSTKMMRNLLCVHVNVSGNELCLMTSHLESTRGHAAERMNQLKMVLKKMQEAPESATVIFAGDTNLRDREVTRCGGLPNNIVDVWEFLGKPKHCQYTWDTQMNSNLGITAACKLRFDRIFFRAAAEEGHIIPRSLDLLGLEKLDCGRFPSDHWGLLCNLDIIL

[4] = biological target: T4, Sentrin-specific protease 8 (Homo sapiens, UniProt Q96LD8); assay type: functional;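 note: luminescence read-out of SENP8 inhibition, dose-response confirmation following an ultra-high-throughput screen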
T4 sequence (Q96LD8 whole entry): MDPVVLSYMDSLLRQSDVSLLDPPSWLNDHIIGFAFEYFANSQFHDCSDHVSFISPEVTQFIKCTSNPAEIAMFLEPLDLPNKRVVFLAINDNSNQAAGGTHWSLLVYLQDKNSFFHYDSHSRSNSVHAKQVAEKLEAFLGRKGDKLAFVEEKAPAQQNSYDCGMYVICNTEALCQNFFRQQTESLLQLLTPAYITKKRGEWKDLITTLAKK

[5] = biological target: Genome polyprotein (dengue virus type 2, UniProt P29990); experiment: Dengue-2 NS5 methyltransferase inhibitors, primary screen, biochemical, confirmation dose response (AID 588689); assay type: functional
[6] = Shn3 3'UTR reporter inhibitors, dose response, cell-based, Clone20 osteoblasts, firefly luciferase, cherry-picked (AID 624132); assay type: functional;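 note: firefly luciferase luminescence from reporter carrying the Shn3 3'UTR in osteoblasts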
[7] = biological target: Heat shock protein HSP 90-alpha (Homo sapiens, UniProt P07900); assay type: functional, organism-based
[8] = cytotoxicity in HEK-293T cells, dose response, cytotoxicity control for TCR NF-kB inhibitor project, luminescence, T-cell screen hits (AID 489026); assay type: functional, cell-based;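 note: cells exposed to compound about 14 hours before the viability readout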
[9] = biological target: T5, Beta-galactosidase (Escherichia coli, UniProt Q8VNN2); experiment: PubChem AID 485352; assay type: functional
[10] = biological target: T5, Beta-galactosidase; experiment: beta-galactosidase enzyme inhibitors and activators, dose response, artefact control for CCR6 antagonist project, biochemical, E. coli enzyme, set 3 (AID 504712); assay type: functional
[11] = biological target: T6, RNA-binding protein pos-1 (Caenorhabditis elegans, UniProt G5EF15); experiment: inhibitors of POS-1/mex-3 RNA binding, dose response, biochemical, fluorescence polarization (AID 1964);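 note: purified POS-1 fused to maltose binding protein made in E. coli; potency of compounds blocking POS-1 binding to fluorescent RNA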
T6 sequence (G5EF15 whole entry): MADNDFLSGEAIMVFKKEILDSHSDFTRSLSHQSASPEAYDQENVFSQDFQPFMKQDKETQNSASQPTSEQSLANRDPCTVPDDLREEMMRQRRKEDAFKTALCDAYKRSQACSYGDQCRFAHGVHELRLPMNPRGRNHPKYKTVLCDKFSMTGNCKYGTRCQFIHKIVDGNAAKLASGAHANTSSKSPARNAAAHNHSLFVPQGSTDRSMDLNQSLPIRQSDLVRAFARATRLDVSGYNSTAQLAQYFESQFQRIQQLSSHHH

T5 sequence (Q8VNN2 whole entry): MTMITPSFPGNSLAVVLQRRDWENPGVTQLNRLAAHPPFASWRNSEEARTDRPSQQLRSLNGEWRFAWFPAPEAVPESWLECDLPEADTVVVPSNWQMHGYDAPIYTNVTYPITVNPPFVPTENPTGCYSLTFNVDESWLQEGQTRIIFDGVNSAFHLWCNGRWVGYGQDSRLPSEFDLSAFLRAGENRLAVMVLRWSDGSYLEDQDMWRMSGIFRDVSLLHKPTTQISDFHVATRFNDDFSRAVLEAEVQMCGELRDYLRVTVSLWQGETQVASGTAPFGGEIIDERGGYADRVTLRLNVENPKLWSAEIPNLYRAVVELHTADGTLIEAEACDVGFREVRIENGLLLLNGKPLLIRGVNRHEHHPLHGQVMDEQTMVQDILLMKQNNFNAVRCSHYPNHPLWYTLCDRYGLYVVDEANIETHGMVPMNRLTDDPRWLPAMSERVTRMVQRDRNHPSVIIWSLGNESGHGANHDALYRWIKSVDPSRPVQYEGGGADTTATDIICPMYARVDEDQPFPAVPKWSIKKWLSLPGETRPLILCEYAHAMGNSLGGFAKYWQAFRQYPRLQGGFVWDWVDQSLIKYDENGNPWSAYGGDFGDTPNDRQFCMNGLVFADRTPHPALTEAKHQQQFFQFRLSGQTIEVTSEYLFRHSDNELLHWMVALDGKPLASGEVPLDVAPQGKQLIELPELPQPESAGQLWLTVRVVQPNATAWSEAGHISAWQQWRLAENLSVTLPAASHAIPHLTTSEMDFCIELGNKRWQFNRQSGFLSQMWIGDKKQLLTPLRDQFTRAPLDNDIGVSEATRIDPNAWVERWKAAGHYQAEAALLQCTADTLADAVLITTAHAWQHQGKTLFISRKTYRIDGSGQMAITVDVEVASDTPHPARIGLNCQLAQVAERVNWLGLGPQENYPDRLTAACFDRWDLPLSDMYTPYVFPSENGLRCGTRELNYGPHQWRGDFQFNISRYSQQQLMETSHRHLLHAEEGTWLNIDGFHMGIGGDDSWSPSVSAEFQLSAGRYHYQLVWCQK
Chain of Genome polyprotein (P29990 2492-3391 limits assumed): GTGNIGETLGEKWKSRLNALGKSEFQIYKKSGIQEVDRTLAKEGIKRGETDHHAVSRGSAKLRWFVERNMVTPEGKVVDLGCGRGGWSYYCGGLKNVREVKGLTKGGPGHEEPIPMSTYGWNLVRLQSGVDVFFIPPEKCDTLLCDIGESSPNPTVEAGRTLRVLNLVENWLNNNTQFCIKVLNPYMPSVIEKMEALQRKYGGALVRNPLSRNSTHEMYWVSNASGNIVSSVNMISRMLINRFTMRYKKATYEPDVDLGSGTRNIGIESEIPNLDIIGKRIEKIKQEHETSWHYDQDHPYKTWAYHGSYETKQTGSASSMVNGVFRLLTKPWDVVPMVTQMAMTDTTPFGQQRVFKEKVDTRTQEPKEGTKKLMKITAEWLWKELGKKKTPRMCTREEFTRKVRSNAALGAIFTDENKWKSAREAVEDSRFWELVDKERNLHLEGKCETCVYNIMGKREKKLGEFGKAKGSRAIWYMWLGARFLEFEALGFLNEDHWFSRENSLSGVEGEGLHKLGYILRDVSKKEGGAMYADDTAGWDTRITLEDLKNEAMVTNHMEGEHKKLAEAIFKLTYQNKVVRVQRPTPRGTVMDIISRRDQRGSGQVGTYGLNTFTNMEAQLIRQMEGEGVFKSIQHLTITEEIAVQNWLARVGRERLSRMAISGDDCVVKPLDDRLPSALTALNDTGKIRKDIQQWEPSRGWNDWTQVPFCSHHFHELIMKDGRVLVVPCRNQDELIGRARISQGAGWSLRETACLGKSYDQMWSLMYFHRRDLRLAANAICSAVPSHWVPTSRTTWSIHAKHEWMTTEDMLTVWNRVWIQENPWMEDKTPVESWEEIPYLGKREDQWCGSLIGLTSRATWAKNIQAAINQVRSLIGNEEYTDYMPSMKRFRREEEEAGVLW

For `Nc1ccc(N2CCCCC2)c2nonc12`, the IC50 [1] was 9.43 µM (active), the IC50 [2] was 36.9 µM (active) and the IC50 [3] was 79.7 µM (inactive). For the same compound, the IC50 [4] was 10.2 µM (active) and the IC50 [5] was 40.6 µM (active).
For `COc1ccc(NC(=O)/C(Cl)=C(/Cl)[S+]([O-])Cc2ccccc2)cn1` (stereo not given), the AC50 [6] was < 0.26 µM (active), the AC50 [7] was 2 µM (active) and the IC50 [8] was 33 µM (inactive). The EC50 [9] was > 40 µM (inactive).
In the case of `Cc1ccc(S(=O)(=O)/N=C2\C=C(Nc3cccc(C(=O)O)c3)C(=O)c3ccccc32)c(C)c1`, the IC50 [1] is reported as 0.819 µM (active), the IC50 [10] is reported as 43.5 µM (inactive) and the EC50 [11] is reported as 68.6 µM (active). For the same compound, the IC50 [2] was 11.2 µM (active), the IC50 [3] was 2.58 µM (active) and the IC50 [4] was 1.78 µM (active).
